# Source: PubChem BioAssay AID1963449 (Molecular Pharmacology Branch, DTP, NCI, 2024)
# Tested on: 596521-263-R-J1-PDC complex spheroid growth
# Test: Anticancer human tumor 596521-263-R-J1-PDC patient-derived soft tissue sarcoma cell line growth inhibition [Asc]
# Details: for IC50: curve of first compound; for viability, T/C: stronger effect = lower value
# In short: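 Tumor cells were grown as multicellular spheroids with stromal HUVEC and mesenchymal stem cells and treated singly or in combination. Concentrations fell in half-log steps from the clinical Cmax, or from 10 microM where none was known.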
# 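Further: spheroids exposed to compounds for 7 days.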
smiles,measurement,setting,value
CCN1C(C(=O)NC23CCC(C(=O)O)(CC2)CC3)C(c2cccc(Cl)c2F)C2(C(=O)Nc3cc(Cl)ccc32)C12CCCCC2 (centres undefined) + Cc1c(S(C)(=O)=O)c(-c2cc(F)cc(N3CCN(c4ccc(NS(=O)(=O)c5ccc(NC(CCN6CCC(C(=O)OCCCP(=O)(O)O)CC6)CSc6ccccc6)c(S(=O)(=O)C(F)(F)F)c5)cc4)CC3)c2)c(-c2ccc(Cl)cc2)n1C(C)C,IC50,second compound 0.0316 µM,> 3000 nM
same,IC50,second compound 0.1 µM,> 3000 nM
same,IC50,second compound 0.316 µM,> 3000 nM
same,IC50,second compound 1 µM,2380 nM
same,IC50,second compound 3.16 µM,459 nM
same,IC50,second compound 10 µM,133 nM
same,"viability, T/C","second compound 0.0316 µM, first compound 0.00949 µM",94.6%
same,"viability, T/C","second compound 0.0316 µM, first compound 0.03 µM",97.5%
same,"viability, T/C","second compound 0.0316 µM, first compound 0.0949 µM",94.3%
same,"viability, T/C","second compound 0.0316 µM, first compound 0.3 µM",90.8%
same,"viability, T/C","second compound 0.0316 µM, first compound 0.949 µM",87.5%
same,"viability, T/C","second compound 0.0316 µM, first compound 3 µM",80.7%
same,"viability, T/C","second compound 0.1 µM, first compound 0.00949 µM",89.5%
same,"viability, T/C","second compound 0.1 µM, first compound 0.03 µM",94.8%
same,"viability, T/C","second compound 0.1 µM, first compound 0.0949 µM",95.9%
same,"viability, T/C","second compound 0.1 µM, first compound 0.3 µM",112%
same,"viability, T/C","second compound 0.1 µM, first compound 0.949 µM",87.7%
same,"viability, T/C","second compound 0.1 µM, first compound 3 µM",73.4%
same,"viability, T/C","second compound 0.316 µM, first compound 0.00949 µM",98.7%
same,"viability, T/C","second compound 0.316 µM, first compound 0.03 µM",92.4%
same,"viability, T/C","second compound 0.316 µM, first compound 0.0949 µM",84.7%
same,"viability, T/C","second compound 0.316 µM, first compound 0.3 µM",97.1%
same,"viability, T/C","second compound 0.316 µM, first compound 0.949 µM",83%
same,"viability, T/C","second compound 0.316 µM, first compound 3 µM",54.1%
same,"viability, T/C","second compound 1 µM, first compound 0.00949 µM",88.6%
same,"viability, T/C","second compound 1 µM, first compound 0.03 µM",76%
same,"viability, T/C","second compound 1 µM, first compound 0.0949 µM",67.2%
same,"viability, T/C","second compound 1 µM, first compound 0.3 µM",83.1%
same,"viability, T/C","second compound 1 µM, first compound 0.949 µM",62.7%
same,"viability, T/C","second compound 1 µM, first compound 3 µM",46.1%
same,"viability, T/C","second compound 3.16 µM, first compound 0.00949 µM",64.5%
same,"viability, T/C","second compound 3.16 µM, first compound 0.03 µM",71%
same,"viability, T/C","second compound 3.16 µM, first compound 0.0949 µM",54.8%
same,"viability, T/C","second compound 3.16 µM, first compound 0.3 µM",57.1%
same,"viability, T/C","second compound 3.16 µM, first compound 0.949 µM",42.2%
same,"viability, T/C","second compound 3.16 µM, first compound 3 µM",24.2%
same,"viability, T/C","second compound 10 µM, first compound 0.00949 µM",50.8%
same,"viability, T/C","second compound 10 µM, first compound 0.03 µM",53%
same,"viability, T/C","second compound 10 µM, first compound 0.0949 µM",51.7%
same,"viability, T/C","second compound 10 µM, first compound 0.3 µM",46.8%
same,"viability, T/C","second compound 10 µM, first compound 0.949 µM",33.8%
same,"viability, T/C","second compound 10 µM, first compound 3 µM",18.8%
O=C(c1ccc(F)c(F)c1Nc1ccc(I)cc1F)N1CC(O)([C@@H]2CCCCN2)C1 + CNC(C)C(=O)NC1CN(S(=O)(=O)c2cccc(S(=O)(=O)N3CCC4CCC(C(=O)NC(c5ccccc5)c5ccccc5)N4C(=O)C(NC(=O)C(C)NC)C3)c2)CCC2CCC(C(=O)NC(c3ccccc3)c3ccccc3)N2C1=O,IC50,second compound 0.00316 µM,179 nM
same,IC50,second compound 0.01 µM,248 nM
same,IC50,second compound 0.0316 µM,211 nM
same,IC50,second compound 0.1 µM,187 nM
same,IC50,second compound 0.316 µM,186 nM
same,IC50,second compound 1 µM,149 nM
same,"viability, T/C","second compound 0.00316 µM, first compound 0.00316 µM",94%
same,"viability, T/C","second compound 0.00316 µM, first compound 0.01 µM",89.4%
same,"viability, T/C","second compound 0.00316 µM, first compound 0.0316 µM",90.5%
same,"viability, T/C","second compound 0.00316 µM, first compound 0.1 µM",63.4%
same,"viability, T/C","second compound 0.00316 µM, first compound 0.316 µM",37.2%
same,"viability, T/C","second compound 0.00316 µM, first compound 1 µM",27.1%
same,"viability, T/C","second compound 0.01 µM, first compound 0.00316 µM",88.4%
same,"viability, T/C","second compound 0.01 µM, first compound 0.01 µM",75.8%
same,"viability, T/C","second compound 0.01 µM, first compound 0.0316 µM",93.3%
same,"viability, T/C","second compound 0.01 µM, first compound 0.1 µM",69.6%
same,"viability, T/C","second compound 0.01 µM, first compound 0.316 µM",45.2%
same,"viability, T/C","second compound 0.01 µM, first compound 1 µM",27.8%
same,"viability, T/C","second compound 0.0316 µM, first compound 0.00316 µM",96.6%
same,"viability, T/C","second compound 0.0316 µM, first compound 0.01 µM",87%
same,"viability, T/C","second compound 0.0316 µM, first compound 0.0316 µM",84.9%
same,"viability, T/C","second compound 0.0316 µM, first compound 0.1 µM",61%
same,"viability, T/C","second compound 0.0316 µM, first compound 0.316 µM",43.9%
same,"viability, T/C","second compound 0.0316 µM, first compound 1 µM",27.3%
same,"viability, T/C","second compound 0.1 µM, first compound 0.00316 µM",76.5%
same,"viability, T/C","second compound 0.1 µM, first compound 0.01 µM",73.3%
same,"viability, T/C","second compound 0.1 µM, first compound 0.0316 µM",73%
same,"viability, T/C","second compound 0.1 µM, first compound 0.1 µM",65%
same,"viability, T/C","second compound 0.1 µM, first compound 0.316 µM",37.5%
same,"viability, T/C","second compound 0.1 µM, first compound 1 µM",22.8%
same,"viability, T/C","second compound 0.316 µM, first compound 0.00316 µM",78.9%
same,"viability, T/C","second compound 0.316 µM, first compound 0.01 µM",91.6%
same,"viability, T/C","second compound 0.316 µM, first compound 0.0316 µM",77.4%
same,"viability, T/C","second compound 0.316 µM, first compound 0.1 µM",65.9%
same,"viability, T/C","second compound 0.316 µM, first compound 0.316 µM",36.8%
same,"viability, T/C","second compound 0.316 µM, first compound 1 µM",23.8%
same,"viability, T/C","second compound 1 µM, first compound 0.00316 µM",65.9%
same,"viability, T/C","second compound 1 µM, first compound 0.01 µM",68.8%
same,"viability, T/C","second compound 1 µM, first compound 0.0316 µM",74.2%
same,"viability, T/C","second compound 1 µM, first compound 0.1 µM",53.2%
same,"viability, T/C","second compound 1 µM, first compound 0.316 µM",37.9%
same,"viability, T/C","second compound 1 µM, first compound 1 µM",18.3%
